The values that follow come from patent US5212310A (priority 1991, dated 1993).

Each structure is given as a SMILES string.

Experiment [1] deals with clonazepam-sensitive benzodiazepine binding site. Particulars: cited from earlier work.
The target of experiment [2] is GABAa receptor. Description: GABAa receptor binding assay, displacement of 3H-RO15-1788 [3H-Flumazenil] in rat cortical tissue. To be noted: 0.5 nM 3H-RO15-1788 [3H-Flumazenil], 30 min at 4° C., pH 7.4. On the procedure: The pharmaceutical utility of compounds of this invention are indicated by the following assay for GABAa receptor activity.
Assays are carried out as described in Thomas and Tallman (J. Bio. Chem. 156: 9838-9842, J. Neurosci. 3:433-440, 1983). Rat cortical tissue is dissected and homogenized in 25 volumes (w/v) of 0.05M Tris HCl buffer (pH 7.4 at 4° C.). The tissue homogenate is centrifuged in cold (4°) at 20,000×g for 20'. The supernatant is decanted and the pellet is rehomogenized in the same volume of buffer and again centrifuged at 20,000×g. The supernatant is decanted and the pellet is frozen at -20° C. overnight. The pellet is then thawed and rehomogenized in 25 volume (original wt/vol) of buffer and the procedure is carried out twice. The pellet is finally resuspended in 50 volumes (w/vol of 0.05M Tris HCl buffer (pH 7.4 at […]).
Incubations contain […] of radioligand 0.5 nM (^3 H-RO15-1788 [^3 H-Flumazenil] specific activity 80 Ci/mmol), drug or blocker and buffer to a total volume of […]. Incubations are carried for 30 min at 4° C. then are rapidly filtered through GFB filters to separate free and bound ligand. Filters are washed twice with fresh 0.05M Tris HCl buffer (pH 7.4 at 4° C.) and counted in a liquid scintillation counter. […] diazepam is added to some tubes to determine nonspecific binding. Data are collected in triplicate determinations, averaged and % inhibition of total specific binding is calculated. Total Specific Binding=Total-Nonspecific. In some cases, the amounts of unlabeled drugs is varied and total displacement curves of binding are carried out. Data are converted to a form for the calculation of IC50 and Hill Coefficient (nH).
In general terms: Loss of bound radioactivity is the signal in a displacement assay; it reports binding, not function.

As to `CN1CCc2cc3c(cc2[C@H]1[C@@H]1OC(=O)c2c1ccc1c2OCO1)OCO3` [(+) bicuculline], the “block of enhancement of benzodiazepine binding by GABA agonists” value in experiment [1] is “blocked”.

As to `CN1CCc2cc3c(cc2[C@@H]1[C@H]1OC(=O)c2c1ccc1c2OCO1)OCO3` [(-) bicuculline], the “block of enhancement of benzodiazepine binding by GABA agonists” value in experiment [1] is “much less active”.

In turn, `O=c1[nH]c2ccncc2c2nc(-c3ccccc3F)cn12` [Compound 1, 2-(2-Fluorophenyl)-imidazol[1,2-c]pyrido[3,4-e]pyrimidin-5(6H)-one] registered an IC50 in experiment [2] of 42 nM.

In turn, `O=c1[nH]c2ccncc2c2nc(-c3ccccc3)cn12` [Compound 2, 2-Phenyl-imidazo[1,2-c]pyrido[3,4-e]pyrimidin-5(6H)-one] came in with a half-inhibitory concentration (IC50) in experiment [2] of 169 nM.

`O=c1[nH]c2cccnc2c2nc(-c3ccccc3)cn12` [Compound 15, 2-Phenylimidazo[1,2-c]pyrido[2,3-e]pyrimidin-5(6H)-one] came in with an IC50 in experiment [2] of 132 nM.

Broadly, the IC50 is the concentration that inhibits the measured activity by half.
